The text below walks through data of ChEMBL document CHEMBL6121065, “Targeting the "Undruggable": Small-Molecule Inhibitors of Proliferating Cell Nuclear Antigen (PCNA) in the Spotlight in Cancer Therapy” (J Med Chem, 2025).

The structures appear in SMILES notation. Where only a bound is given, the exact number is not on record here.

Assay [1] concerns Jurkat. The experiment in a line: Antiproliferative activity against human Jurkat cells assessed as reduction in cell growth measured for 48 hrs by MTT assay. The format is functional, cell-based. Background: Tetrazolium dyes change colour on reduction, which living cells bring about.
The test system of assay [2] is HeLa. As to the kind of experiment: Antiproliferative activity against human HeLa cells assessed as reduction in cell growth measured for 48 hrs by MTT assay. The format is functional, cell-based.
The subject of assay [3] is MCF7. As to the kind of experiment: Antiproliferative activity against human MCF7 cells assessed as reduction in cell growth measured for 48 hrs by MTT assay. The format is functional, cell-based. The following applies: MCF7, 48 h.
Assay [4] has as its system HepG2. As to the kind of experiment: Antiproliferative activity against human HepG2 cells assessed as reduction in cell growth measured for 48 hrs by MTT assay. The format is functional, cell-based. The following applies: HepG2, 48 h.
Assay [5] deals with HCT-116. As to the kind of experiment: Antiproliferative activity against human HCT-116 cells assessed as reduction in cell growth measured for 48 hrs by MTT assay. The format is functional, cell-based. The following applies: HCT-116, 48 h.
Assay [6] has as its target T1, Proliferating cell nuclear antigen (Homo sapiens, UniProt P12004). The experiment in a line: Binding affinity to N-terminal recombinant 6His-tagged PCNA (unknown origin) extracted from Escherichia coli BL21 (DE3) by fluorescence polarization assay. (In general: Fluorescence polarisation rises when a labelled molecule tumbles more slowly, as on binding a larger partner.)

In assay [7] the test system is SK-N-AS. As to the kind of experiment: Antiproliferative activity against human SK-N-AS cells assessed as reduction in cell viability incubated for 72 hrs by cell-titer Glo assay. The format is functional, cell-based.
Assay [8] in a line: Antiproliferative activity against human SK-N-BE(2)-C cells. The format is functional, cell-based.
Assay [9] concerns SK-N-DZ. The experiment in a line: Antiproliferative activity against human SK-N-DZ cells. The format is functional, cell-based.
For assay [10], the system named is SK-N-AS. As to the kind of experiment: Anticancer activity against human SK-N-AS cells. The format is functional, cell-based.
In assay [11] the target is T1, Proliferating cell nuclear antigen. The experiment in a line: Inhibition of N-terminal 6His-tagged recombinant PCNA (unknown origin) extracted from Escherichia coli BL21 (DE3) by fluorescence based analysis.
Assay [12] concerns A549. The experiment in a line: Antiproliferative activity against human A549 cells assessed as reduction in cell viability incubated for 72 hrs by MTT assay. The format is functional, cell-based. The settings on record: A549, 72 h.
Assay [13] deals with A673. The experiment in a line: Antiproliferative activity against human A673 cells assessed as reduction in cell viability incubated for 72 hrs by MTT assay. The format is functional, cell-based. The settings on record: A673, 72 h.
Assay [14] deals with HeLa. The experiment in a line: Antiproliferative activity against human HeLa cells assessed as reduction in cell viability incubated for 72 hrs by MTT assay. The format is functional, cell-based.
The test system of assay [15] is SH-SY5Y. The experiment in a line: Antiproliferative activity against human SH-SY5Y cells assessed as reduction in cell viability. The format is functional, cell-based.

T1 sequence (P12004 whole entry): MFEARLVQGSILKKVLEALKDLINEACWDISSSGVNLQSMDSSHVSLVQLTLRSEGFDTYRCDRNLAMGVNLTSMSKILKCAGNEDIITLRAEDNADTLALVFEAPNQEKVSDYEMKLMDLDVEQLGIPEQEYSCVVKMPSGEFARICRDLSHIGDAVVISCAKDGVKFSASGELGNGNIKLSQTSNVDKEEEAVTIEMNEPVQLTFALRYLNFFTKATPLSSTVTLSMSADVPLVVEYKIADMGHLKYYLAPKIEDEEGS

As a reminder, the IC50 is the midpoint of a concentration-inhibition curve. In the case of `COc1cc(C(=O)N2CCC(N3CCN(C)CC3)CC2)ccc1Nc1ncc2c(n1)N(C)c1ccccc1C(=O)N2C`, the IC50 in [1] was determined as 5900 nM; in [2], 13500 nM; in [3], 42800 nM; in assay [4] it was 89100 nM; in [5], 9250 nM. What is called Ki is the equilibrium dissociation constant of an inhibitor or competing ligand from its target. For `O=C1CN(C(=O)CCc2cc(I)c(Oc3ccc(O)cc3)c(I)c2)CCN1`, the Ki in [6] was above 4810 nM. On to `O=C(CNC(=O)c1cccc2ccccc12)Nc1ccc(Oc2ccncc2)cc1`, for which the IC50 in assay [7] worked out at 1100 nM. `Cc1noc(C)c1S(=O)(=O)N[C@H](CO)Cc1cc(I)c(Oc2ccc(O)cc2)c(I)c1`: in assay [6], the Ki is 150 nM. The same measure, in the same setting: with `CN(C)C(=O)Cc1cc(I)c(Oc2ccc(O)cc2)c(I)c1` the figure was 720 nM. Turning to `O=C(CNC(=O)c1cccc2ccccc12)Nc1ccccc1Oc1cccc(O)c1`, the IC50 was determined as 192 nM in assay [7], 485 nM in assay [8] and 539 nM in [9]. Take `N[C@H](CO)Cc1cc(I)c(Oc2ccc(O)c(I)c2)c(I)c1`: the Ki in [6] came to 60 nM.

In the case of `O=C(CNC(=O)c1cccc2ccccc12)Nc1cccc(Oc2ccncc2)c1`, the IC50 in [7] amounted to 21600 nM.

Regarding `N[C@H](CNC(=O)CO)Cc1cc(I)c(Oc2ccc(O)cc2)c(I)c1`, the Ki in assay [6] came to 130 nM. `O=C(Nc1ccccc1Oc1ccccc1)c1cccc2ccccc12` gave an IC50 in [10] above 10000 nM. For `COc1ccc(S(=O)(=O)N[C@H](CO)Cc2cc(I)c(Oc3ccc(O)cc3)c(I)c2)cc1`, in [6], the Ki came to 930 nM.

Take `Cc1cc(Oc2c(I)cc(C[C@H](N)CO)cc2I)ccc1O`: the Ki in assay [6] stood at 173 nM.

On to `O=C(CNC(=O)c1cncc2ccccc12)Nc1ccccc1Oc1ccncc1`, for which the IC50 in [7] is above 30000 nM. On the same count and under the same terms, in the case of `O=C(CNC(=O)c1nccc2ccccc12)Nc1ccc(Oc2ccncc2)cc1` it was above 30000 nM. As to `NC(=O)CN(Cc1ccc(CO)cc1)C(=O)CNC(=O)CN[C@H](CO)Cc1cc(I)c(Oc2ccc(O)cc2)c(I)c1`, the IC50 in assay [11] worked out at 5560 nM. Consider `COc1cccc(Oc2ccccc2NC(=O)CNC(=O)c2cccc3ccccc23)c1`, for which the IC50 was 125 nM in [7], 236 nM in [8] and 288 nM in assay [9]. For the compound `O=C(CNC(=O)c1nccc2ccccc12)Nc1cccc(Oc2ccncc2)c1`, the IC50 in [7] stood at 34000 nM. As to `O=C(CNC(=O)c1cccc2ccccc12)Nc1ccc(Cl)cc1Oc1ccccc1`, the results for the IC50 in assay [7], in assay [8] and in assay [9] were 185 nM, 500 nM and 447 nM, respectively.

Consider `O=C(O)CC[C@H](NC(=O)c1cccc2ccccc12)C(=O)Nc1ccccc1Oc1ccccc1`, for which the IC50 in [10] is above 10000 nM. For the compound `O=C(CNC(=O)c1cccc2ccccc12)Nc1ccccc1Oc1ccccc1`, the IC50 in assay [7] is 100 nM; in assay [8], 325 nM; in assay [9], 237 nM. On to `CNC(=O)Cc1cc(I)c(Oc2ccc(O)cc2)c(I)c1`, for which the Ki in assay [6] came out at 780 nM.

In the case of `O=C(CCc1cc(I)c(Oc2ccc(O)cc2)c(I)c1)N1CCCCC1`, in [6], the Ki came to 231 nM. Take `N[C@H](CNC(=O)NC(=O)CCN1CCOCC1)Cc1cc(I)c(Oc2ccc(O)cc2)c(I)c1`: the IC50 in assay [11] was 1200 nM. For the same compound, the Ki in assay [6] was determined as 110 nM. In the case of `O=C(CNC(=O)c1cncc2ccccc12)Nc1cccc(Oc2ccncc2)c1`, the IC50 in assay [7] was above 30000 nM. For the compound `CC(C)[C@@H](NC(=O)c1cccc2ccccc12)C(=O)Nc1ccccc1Oc1ccccc1`, the concentration for half-maximal inhibition (IC50) in assay [10] is above 10000 nM. Take `O=C(CNC(=O)c1cncc2ccccc12)Nc1ccc(Oc2ccncc2)cc1`: the IC50 in assay [7] is above 30000 nM. Regarding `COc1ccc(Oc2c(I)cc(CCC(=O)N3CCCCC3)cc2I)cc1`, the Ki in assay [6] came to 910 nM.

Consider `CS(=O)(=O)NC(=O)Cc1cc(I)c(Oc2ccc(O)cc2)c(I)c1`, for which the Ki in [6] came to 870 nM. For the compound `COc1ccc(Oc2c(I)cc(CCC(=O)NS(C)(=O)=O)cc2I)cc1`, the Ki in assay [6] was above 4810 nM. Compound `O=C(CCNC(=O)c1cccc2ccccc12)Nc1ccccc1Oc1ccccc1` came in with an IC50 in [10] above 10000 nM.

For the compound `O=C(CNC(=O)c1cncc2ccccc12)Nc1ccccc1Oc1ccccc1`, in assay [7], the IC50 was above 30000 nM. As to `NC(=O)CN(Cc1ccc(O)cc1)C(=O)CN(CCO)C(=O)CN[C@H](CO)Cc1cc(I)c(Oc2ccc(O)cc2)c(I)c1`, the Ki in [6] is 40 nM.

In the case of `CS(=O)(=O)NC(=O)CCc1cc(I)c(Oc2ccc(O)cc2)c(I)c1`, the inhibition constant (Ki) in assay [6] is 1920 nM.

In the case of `O=C(Cc1cc(I)c(Oc2ccc(O)cc2)c(I)c1)N1CCOCC1`, the Ki in assay [6] amounted to 600 nM. `NCCCC[C@H](NC(=O)c1cccc2ccccc12)C(=O)Nc1ccccc1Oc1ccccc1` gave an IC50 in assay [10] above 10000 nM. The same measure, in the same setting: in the case of `COc1cccc(Oc2ccccc2NC(=O)[C@H](C)NC(=O)c2cccc3ccccc23)c1` it was above 10000 nM. In the case of `O=C(CNC(=O)c1cccc2ccccc12)Nc1c(Cl)cccc1Oc1ccccc1`, the IC50 in [7], in assay [8] and in [9] was above 10000 nM each time. Take `O=C(O)CC[C@@H](NC(=O)c1cccc2ccccc12)C(=O)Nc1ccccc1Oc1ccccc1`: the IC50 in assay [10] was above 10000 nM.

Regarding `COc1cccc(Oc2ccccc2NC(=O)CNC(=O)c2ccc(-c3ccccc3)cc2)c1`, the IC50 in assay [7] was above 10000 nM. Turning to `NC(=O)CN(Cc1ccc2c(c1)OCO2)C(=O)CN(CCO)C(=O)CN[C@H](CO)Cc1cc(I)c(Oc2ccc(O)cc2)c(I)c1`, the Ki in assay [6] was found to be 170 nM. As for `NCc1ccc(CN(CC(N)=O)C(=O)CN(CCO)C(=O)CN[C@H](CO)Cc2cc(I)c(Oc3ccc(O)cc3)c(I)c2)cc1`, the IC50 in assay [11] was 1180 nM. In addition, the Ki in assay [6] was 114 nM. In the case of `O=C(CNC(=O)c1cccc2ccccc12)Nc1ccccc1Oc1ccncc1`, the IC50 in [7] was above 50000 nM.

With `NC[C@@H](N)Cc1cc(I)c(Oc2ccc(O)cc2)c(I)c1`, in [6], the Ki worked out at 240 nM.

For the compound `CCNC(=O)Cc1cc(I)c(Oc2ccc(O)cc2)c(I)c1`, in assay [6], the Ki was found to be 630 nM.

Take `O=S(=O)(N[C@H](CO)Cc1cc(I)c(Oc2ccc(O)cc2)c(I)c1)c1ccccc1`: in assay [6], the Ki came to 570 nM. As to `COc1ccc(Oc2ccccc2NC(=O)CNC(=O)c2cccc3ccccc23)cc1`, the IC50 was determined as 91 nM in [7], 234 nM in [8] and 271 nM in assay [9]. The corresponding values for `O=C(CNC(=O)c1cccc2ccccc12)Nc1ccccc1Oc1ccc(O)cc1` are 156 nM, 490 nM and 467 nM. For `COc1cccc(Oc2ccccc2NC(=O)CNC(=O)CCc2cccc3ccccc23)c1`, the IC50 in [7] was above 10000 nM.

In the case of `COc1cccc(Oc2ccccc2NC(=O)CNC(=O)Cc2cccc3ccccc23)c1`, in [7], the half-maximal inhibitory concentration (IC50) was above 10000 nM. Same read-out and setting: with `O=C(CNC(=O)c1nccc2ccccc12)Nc1ccccc1Oc1ccccc1` the figure was 35000 nM.

Consider `O=S(=O)(N[C@H](CO)Cc1cc(I)c(Oc2ccc(O)cc2)c(I)c1)c1ccc(O)cc1`, for which the Ki in assay [6] amounted to 3080 nM. For `O=C(CNC(=O)c1nccc2ccccc12)Nc1ccccc1Oc1ccncc1`, in [7], the IC50 was determined as 42000 nM. With `CC(C)[C@H](NC(=O)c1cccc2ccccc12)C(=O)Nc1ccccc1Oc1ccccc1`, the IC50 in [10] is above 10000 nM.

Take `O=C1CN(C(=O)Cc2cc(I)c(Oc3ccc(O)cc3)c(I)c2)CCN1`: the Ki in assay [6] amounted to 870 nM. For `COc1cccc(Oc2ccccc2NC(=O)CNC(=O)c2c(C)cc(C)cc2C)c1`, the IC50 in assay [12] was found to be 4700 nM; in assay [13] it was 5500 nM; in assay [14] it was 6500 nM. As to `C[C@H](NC(=O)c1cccc2ccccc12)C(=O)Nc1ccccc1Oc1ccccc1`, the IC50 in [15] stood at 4000 nM. `O=C1NC[C@H](Cc2cc(I)c(Oc3ccc(O)cc3)c(I)c2)N1`: in [6], the Ki came out at 540 nM. The same measure, in the same setting: with `CNC(=O)CCc1cc(I)c(Oc2ccc(OC)cc2)c(I)c1` the figure was 1630 nM. On to `O=C(CNC(=O)c1cccc2ccccc12)Nc1ccccc1Cc1ccccc1`, for which the IC50 in [7] stood at 1100 nM. Consider `NCCCC[C@@H](NC(=O)c1cccc2ccccc12)C(=O)Nc1ccccc1Oc1ccccc1`, for which the IC50 in [10] is above 10000 nM. In the case of `N[C@H](CNC(=O)NCc1ccccc1)Cc1cc(I)c(Oc2ccc(O)cc2)c(I)c1`, the Ki in assay [6] was found to be 10 nM.

For `CCCCCCNC(=O)NC[C@@H](N)Cc1cc(I)c(Oc2ccc(O)cc2)c(I)c1`, the Ki in assay [6] was 120 nM.
